Where “and” joins values, the source holds several entries; their conditions need not be identical. Equal values may be shown once.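 Results reflect a 48-hour exposure of cells in 96-well plates to compound at five concentrations. GI50 = concentration required for 50% inhibition of growth. TGI marks complete inhibition of growth.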
Columns and labels:
Experiment in all cases: inhibition of tumour cell growth, NCI panel, 48 h
HL-60(TB) leukemia = system: HL-60(TB) leukemia
NCI-H522 lung = system: NCI-H522 lung
PC-3 prostate = system: PC-3 prostate
DLD-1 colon = system: DLD-1 colon
MOLT-4 leukemia = system: MOLT-4 leukemia
ACHN renal = system: ACHN renal
LOX IMVI melanoma = system: LOX IMVI melanoma
DMS 114 small cell lung = system: DMS 114 small cell lung
U251 CNS = system: U251 CNS
HT29 colon = system: HT29 colon

Row | SMILES | TGI (HL-60(TB) leukemia) | TGI (NCI-H522 lung) | TGI (PC-3 prostate) | TGI (DLD-1 colon) | TGI (MOLT-4 leukemia) | TGI (ACHN renal) | TGI (LOX IMVI melanoma) | TGI (DMS 114 small cell lung) | TGI (U251 CNS) | TGI (HT29 colon) | GI50 (HL-60(TB) leukemia) | GI50 (NCI-H522 lung) | GI50 (PC-3 prostate) | GI50 (DLD-1 colon) | GI50 (MOLT-4 leukemia) | GI50 (ACHN renal) | GI50 (LOX IMVI melanoma) | GI50 (DMS 114 small cell lung) | GI50 (U251 CNS) | GI50 (HT29 colon)
1 | Nc1ccc(C(=O)Nc2ccccc2N)cc1 | 17.6 µM | 47.2 µM | > 100 µM | > 100 µM | 73.7 µM | > 100 µM | > 75.8 µM | > 100 µM | 59.8 µM | > 100 µM |  |  |  |  |  |  |  |  |  | 
2 | CCc1ccc([O-])c(C=NCCCN(C)CCCN=Cc2cc(C)ccc2[O-])c1.[Co+3].[N-]=[N+]=[N-] | > 150 µg/mL | 50 µg/mL and > 150 µg/mL | 50 µg/mL | > 150 µg/mL | > 150 µg/mL | 50 µg/mL | > 150 µg/mL | > 150 µg/mL | 50 µg/mL and 123 µg/mL | 50 µg/mL and > 150 µg/mL | 61 µg/mL | 50 µg/mL and > 150 µg/mL | 29.5 µg/mL | 61 µg/mL | > 150 µg/mL | 50 µg/mL | 41.3 µg/mL | 136 µg/mL | 20.1 µg/mL and 33 µg/mL | 50 µg/mL and > 150 µg/mL
3 | N#Cc1cn(-c2c3ccccc3nc3ccccc23)c(=O)[nH]c1=O | 30.6 µM | 18.3 µM |  | > 100 µM | 22.6 µM | 34.8 µM | 21.2 µM | 35.4 µM | 71 µM | 28.5 µM |  |  |  |  |  |  |  |  |  | 
4 | O=C(NC1C(=O)NNC1c1ccccc1Cl)c1ccccc1 (centres undefined) | > 100 µM | > 100 µM |  | > 100 µM | > 100 µM | > 100 µM | > 100 µM | > 100 µM | > 100 µM | > 100 µM |  |  |  |  |  |  |  |  |  | 
5 | NC(=O)c1cc([N+](=O)[O-])cc([N+](=O)[O-])c1 | > 100 µM | > 100 µM |  | > 100 µM | > 100 µM | > 100 µM | > 100 µM | > 100 µM | > 100 µM | > 100 µM |  |  |  |  |  |  |  |  |  | 
6 | COc1ccc(/C=C2\CCC(Cc3ccccc3)(CN(C)C)C2=O)cc1 (centres undefined) | 55.3 µM | > 71.9 µM | > 100 µM | > 100 µM | > 81.2 µM | > 100 µM | 57.5 µM | 48.6 µM | > 100 µM | > 87.8 µM |  |  |  |  |  |  |  |  |  | 
7 | CC1CC(c2ccc(Cl)c(Cl)c2)=Nc2ccccc2S1 (centres undefined) | > 100 µM | > 100 µM |  | > 100 µM | > 100 µM | > 100 µM | > 100 µM | > 100 µM | > 100 µM | > 100 µM |  |  |  |  |  |  |  |  |  | 
8 | COC(=O)C1=C(\O)C[C@@]2(C)CC[C@@H](C(=O)OC)C2C/C=C\1C(=O)OC (some centres undefined) | > 100 µM | > 100 µM |  | > 100 µM | > 100 µM | > 100 µM | > 100 µM | > 100 µM | > 100 µM | > 100 µM |  |  |  |  |  |  |  |  |  | 
9 | CN1CCc2cc3c4cc2C1Cc1ccc(cc1)Oc1cc(ccc1O)CC1c2c(cc(O)c(c2O4)O3)CCN1C (centres undefined) | 41.6 µM | 11.1 µM |  | 14.8 µM | 10.2 µM | 20.7 µM | 3.23 µM | 4.58 µM | 3.16 µM | 9.42 µM |  |  |  |  |  |  |  |  |  | 

— PubChem BioAssay (NCI)
